{
  "source": "patent US20090048216A1",
  "about": "“INTRAVENOUS AND ORAL DOSING OF A DIRECT-ACTING AND REVERSIBLE P2Y12 INHIBITOR” (Portola Pharmaceuticals, Inc., priority 2007, published 2009)",
  "key": {"P2Y12 receptor": {"target": "T1, P2Y12 receptor (Homo sapiens, UniProt Q9H244)", "T1 construct": "endogenous in cells; host or cells: apyrase-washed human platelets (outdated from hospital blood banks, or fresh)", "T1 sequence (Q9H244 whole entry)": "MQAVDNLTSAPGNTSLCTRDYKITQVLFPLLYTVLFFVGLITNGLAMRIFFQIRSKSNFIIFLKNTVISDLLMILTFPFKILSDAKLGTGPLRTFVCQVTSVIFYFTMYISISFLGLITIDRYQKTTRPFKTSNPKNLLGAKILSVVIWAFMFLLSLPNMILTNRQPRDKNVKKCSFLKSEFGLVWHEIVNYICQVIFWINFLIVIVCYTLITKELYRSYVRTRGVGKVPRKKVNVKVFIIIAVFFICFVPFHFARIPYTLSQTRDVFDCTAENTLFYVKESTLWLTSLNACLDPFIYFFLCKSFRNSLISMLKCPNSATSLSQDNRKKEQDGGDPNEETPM", "assay": "platelet ADP receptor binding assay (ARB): inhibition of [3H]2-MeS-ADP binding to platelets", "conditions": "whole platelets", "protocol": "1. The Ability of Candidate Molecules to Inhibit the Binding of [3H]2-MeS-ADP to the P2Y12 Receptor on Platelets was Determined Using a Radioligand Binding Assay.\nUtilizing this assay the potency of inhibition of such compounds with respect to [^3H]2-MeS-ADP binding to whole platelets is determined. Under the conditions described in II (3) below, the binding of [^3H]2-MeS-ADP is solely due to the interaction of this ligand with the P2Y12 receptor, in that all the specific binding measured in this assay is compatable with a P2Y12 antagonist (i.e., the specific binding is reduced to background levels by competition with an excess of P2Y12 antagonist, with no competition of binding when a P2Y1 antagonist is pre-incubated with the platelet preparation). […]\nA platelet ADP receptor binding assay (ARB) using the tritiated potent agonist ligand [3H]2-MeS-ADP (Jantzen, H. M. et al. (1999) Thromb. Hemost. 81:111-117) has been adapted to the 96-well microtiter format. […] Total binding is determined in the absence of test compounds. […] The platelet-bound radioactivity on the filtermats is determined in a scintillation counter (Microbeta 1450, Wallac Inc., Gaithersburg, Md.). Specific binding is determined by subtraction of non-specific binding from total binding, and specific binding in the presence of test compounds is expressed as % of specific binding in the absence of test compound dilutions. […]"}, "[1]": {"system": "ADP-induced human platelet aggregation", "assay": "Inhibition of ADP-mediated platelet aggregation in vitro (PRP assay)", "assay_type": "cell-based", "conditions": "human platelet-rich plasma", "protocol": "For preparation of human platelet-rich plasma for aggregation assays, human venous blood was collected from healthy, drug-free volunteers into 0.38% sodium citrate (0.013 M, pH 7.0 final). […] This preparation of PRP can subsequently be used for aggregation assays in either a 96-well plate or standard cuvette aggregometry.\nFor cuvette light transmittance aggregation assays, serial dilutions (1:3) of test compounds were prepared in 100% DMSO in a 96 well V-bottom plate (final DMSO concentration in the cuvette was 0.6%). […] The aggregation reaction is recorded for ˜5 min, and maximum extent of aggregation is determined by the difference in extent of aggregation at baseline, compared to the maximum aggregation that occurs during the five minute period of the assay. Inhibition of aggregation was calculated as the maximum aggregation observed in the presence of inhibitor, compared to that in the absence of inhibitor. […]\nInhibition of ADP-dependent aggregation was also determined in 96-well flat-bottom microtiter plates using a microtiter plate shaker and plate reader similar to the procedure described by Frantantoni et al., Am. […] The OD of the samples is then determined at 450 nm using a microtiter plate reader (Softmax, Molecular Devices, Menlo Park, Calif.) resulting in the 0 minute reading. […]"}, "[2]": {"conditions": "one week, 40° C., 75% RH"}, "[3]": {"assay": "Accelerated stability of solid forms"}, "[4]": {"assay": "Pharmacokinetics of single oral liquid doses in human subjects", "assay_type": "in vivo"}, "[5]": {"system": "collagen-induced platelet thrombosis", "assay": "Real Time Thrombosis Profiler (RTTP) ex vivo after oral dosing", "assay_type": "in vivo, human", "conditions": "6 hours post dosing", "protocol": "Rhodamine 6G (1.25 μg/ml final concentration) was added to the blood, mixed by gentle inversion, and the tube was incubated at ˜37° C. for 20 min. Subsequently, the rhodamine-labeled blood was perfused through a rectangular glass capillary coated with type III collagen at an arterial shear rate (˜1600 sec^−1) and the extent of thrombus formation on the collagen surface was monitored for 5-7 min by the accumulation of fluorescently-labeled platelets using a video camera. The extent of the overall thrombotic process (e.g., accumulation of fluorescently-labeled platelets over time) was determined by analysis of various parameters derived from the curve generated from mean fluorescence intensity vs time (sec). These parameters may include slope, area under the curve, and endpoint.\nIn yet another part of the study, the effects of the oral treatments in the human subjects was investigated using a Real Time Thrombosis Profiler (RTTP) as the ex vivo assay method. The set up and principles of operation of the RTTP are depicted in FIGS. 26A, B, and C. There was a dose-dependent decrease in the RTTP collagen-induced platelet thrombosis for the subjects given the compound. A dose of 100 mg of the compound produced about a 70% inhibition. A dose of 30 mg of the compound produced a 53 percent inhibition."}, "[6]": {"assay": "Tolerability and safety of single intravenous doses in human subjects", "assay_type": "in vivo", "from_the_text": "To determine the tolerability, the pharmacokinetic (PK) and pharmacodynamic (PD) effects of single ascending IV doses of a compound of Formula I (the potassium salt of polymorph B, or PRT128) in healthy subjects, ages 18-50."}, "[7]": {"assay": "Bleeding time (Surgicutt device) after IV infusion", "assay_type": "in vivo, human", "protocol": "Bleeding time was measured using the Surgicutt device at 25 min (Cmax) and 8 hrs post dose. […] However, this effect was reversed by 8 hrs post dosing."}, "[8]": {"assay": "Pharmacokinetics of single IV doses in human subjects", "assay_type": "in vivo", "conditions": "IV 1-40 mg"}, "[9]": {"system": "ADP induced platelet aggregation", "experimental": "(§1) Human venous blood was collected in a plastic syringe and immediately transferred to a plastic tube containing a fixed amount of anticoagulant (e.g., 5 μM (final) of a proprietary Portola anticoagulant C921-78 (a factor Xa inhibitor (see, Betz A, Wong P W, Sinha U. Inhibition of factor Xa by a peptidyl-alpha-ketothiazole involves 2 steps: evidence for a stabilizing conformational change. Biochemistry. 1999; 38: 14582-14591)) and mixed gently by inversion. Platelet-rich plasma (PRP) was prepared by centrifugation of whole blood at 160×g for 20 minutes at room temperature. The PRP layer was removed, transferred to a new tube, and the platelet count was adjusted, if necessary, to achieve a platelet concentration of ˜3×10^8 platelets/ml using platelet-poor plasma (PPP). PPP is prepared by centrifugation of the remaining blood sample (after removal of PRP) for 20 minutes at 800×g. This preparation of PRP was used for standard light transmittance aggregometry assays. A fixed volume of PRP (0.3-0.5 mls) was transferred to an aggregometry cuvette, and the same volume of PPP was used to blank the machine. While stirring the PRP, a sufficient volume of adenosine diphosphate (ADP, Sigma-Aldrich) was added to achieve a final concentration of 10 μM in the cuvette, and the change in light transmittance was recorded for 6 minutes. The maximum extent of aggregation as well as the final (6 min after initiation of the aggregation reaction) extent of aggregation was determined from each reaction.\n(§2) The compound of Formula I was the potassium salt (Polymorph B) dissolved in water."}, "[10]": {"system": "ADP-induced platelet aggregation", "conditions": "IV, at the higher dosages", "experimental": "(§3) Human venous blood was collected in a plastic syringe and immediately transferred to a plastic tube containing a fixed amount of anticoagulant (e.g., 5 μM (final) of a proprietary Portola anticoagulant C921-78 (a factor Xa inhibitor (see, Betz A, Wong P W, Sinha U. Inhibition of factor Xa by a peptidyl-alpha-ketothiazole involves 2 steps: evidence for a stabilizing conformational change. Biochemistry. 1999; 38: 14582-14591)) and mixed gently by inversion. Platelet-rich plasma (PRP) was prepared by centrifugation of whole blood at 160×g for 20 minutes at room temperature. The PRP layer was removed, transferred to a new tube, and the platelet count was adjusted, if necessary, to achieve a platelet concentration of ˜3×10^8 platelets/ml using platelet-poor plasma (PPP). PPP is prepared by centrifugation of the remaining blood sample (after removal of PRP) for 20 minutes at 800×g. This preparation of PRP was used for standard light transmittance aggregometry assays. […] While stirring the PRP, a sufficient volume of adenosine diphosphate (ADP, Sigma-Aldrich) was added to achieve a final concentration of 10 μM in the cuvette, and the change in light transmittance was recorded for 6 minutes. The maximum extent of aggregation as well as the final (6 min after initiation of the aggregation reaction) extent of aggregation was determined from each reaction."}, "[11]": {"system": "ADP induced platelet aggregation", "assay": "animal or person", "conditions": "Homo sapiens, po, 0.1 h, read-out: IC50 of inhibition of ADP-induced platelet aggregation vs plasma concentration (PK-PD), oral study, aggregation at 6 minutes, ex vivo", "experimental": "as §1, §2"}, "[12]": {"system": "ADP-induced platelet aggregation", "assay": "animal or person", "conditions": "Homo sapiens, iv, 0.1 h, read-out: IC50 for inhibition of ADP-induced late (6 min) platelet aggregation vs plasma concentration (Emax model)", "experimental": "as §3"}, "[13]": {"assay": "Tolerability and safety of single oral doses in human subjects", "conditions": "oral doses 10-800 mg", "experimental": "A single center, double-blind, placebo-controlled study of a compound of Formula I was conducted in human subjects. The compound of Formula I was the potassium salt (Polymorph B) dissolved in water."}, "[14]": {"system": "collagen induced platelet aggregation", "assay": "Ex vivo collagen-induced platelet aggregation after oral dosing, with or without aspirin", "assay_type": "in vivo, human", "conditions": "aspirin alone, predosed for three days at 325 mg/day", "from_the_text": "In a further aspect of the study, the effect of aspirin and the compound together on the inhibition of collagen-induced platelet aggregation was investigated."}},
  "note": "“Also recorded” adds a separate entry of the source.",
  "data": [
    {"compound": "CNc1cc2[nH]c(=O)n(-c3ccc(NC(=O)NS(=O)(=O)c4ccc(Cl)s4)cc3)c(=O)c2cc1F", "note": "[Example 2]", "values": [
      {"measurement": "IC50", "setting": "P2Y12 receptor", "value": "< 0.05", "unit": "µM"},
      {"measurement": "IC50", "setting": "[1]", "value": "< 10", "unit": "µM"}
    ]},
    {"compound": "CNc1cc2[nH]c(=O)n(-c3ccc(NC(=O)[N-]S(=O)(=O)c4ccc(Cl)s4)cc3)c(=O)c2cc1F.[K+]", "note": "[Form A]", "values": [
      {"measurement": "change in chemical purity in accelerated stability test", "setting": "[2]", "value": "No change"},
      {"measurement": "stability of solid form", "setting": "[3]", "value": "stable"}
    ]},
    {"compound": "CNc1cc2[nH]c(=O)n(-c3ccc(NC(=O)[N-]S(=O)(=O)c4ccc(Cl)s4)cc3)c(=O)c2cc1F.[K+]", "note": "[PRT128]", "values": [
      {"measurement": "plasma PK increases with dose", "setting": "[4]; oral, 10-100 mg", "value": "dose proportional"},
      {"measurement": "half-life", "setting": "[4]; plasma, single oral liquid dose, read-out: terminal half-life (converted)", "value": "~12", "unit": "h"},
      {"measurement": "inhibition of RTTP collagen-induced platelet thrombosis", "setting": "[5]; oral 30 mg", "value": 53, "unit": "%"},
      {"measurement": "inhibition of RTTP collagen-induced platelet thrombosis", "setting": "[5]; oral 100 mg", "value": "~70", "unit": "%"},
      {"measurement": "ECG", "setting": "[6]; IV 1-40 mg", "value": "No significant changes"},
      {"measurement": "serious adverse events", "setting": "[6]; IV 1-40 mg", "value": "No serious adverse events"},
      {"measurement": "standard clinical chemistry, hematology and coagulation labs", "setting": "[6]; IV 1-40 mg", "value": "no clinically significant changes or trends"},
      {"measurement": "vital signs", "setting": "[6]; IV 1-40 mg", "value": "No significant changes or trends"},
      {"measurement": "tolerability", "setting": "[6]; IV 1-40 mg over 20 minutes, human", "value": "well tolerated"},
      {"measurement": "tolerability", "setting": "[6]; IV bolus up to 45 mg", "value": "equally well tolerated"},
      {"measurement": "dose at which pre-defined bleeding time stopping criteria (>20 min and 3 fold prolongation from baseline) were reached", "setting": "[7]", "value": 40, "unit": "mg"},
      {"measurement": "bleeding time", "setting": "[7]; 25 min (Cmax)", "value": "prolonged dose-dependently"},
      {"measurement": "bleeding time effect at 8 hrs", "setting": "[7]; 8 hrs post dose, potassium salt", "value": "reversed; also recorded: returned to baseline"},
      {"measurement": "bleeding time at potential clinically therapeutic anti-thrombotic level of 40%", "setting": "[7]; listed as studied compound, potassium salt", "value": "without substantially affecting bleeding time"},
      {"measurement": "bleeding time at potential clinically therapeutic anti-thrombotic level of 40%", "setting": "[7]; potassium salt", "value": "did not increase bleeding time"},
      {"measurement": "drug exposure with dose", "setting": "[8]", "value": "dose proportional"},
      {"measurement": "inhibition of ADP-induced platelet aggregation", "setting": "[9]; oral 100 mg, four hours post dose", "value": 60, "unit": "%"},
      {"measurement": "IC50 of inhibition of ADP-induced platelet aggregation vs plasma concentration (PK-PD)", "setting": "[9]; oral study, aggregation at 6 minutes, ex vivo, listed as potassium salt, potassium salt", "value": "≈ 450 ng/ml"},
      {"measurement": "maximum inhibition of ADP-induced platelet aggregation measured at six minutes", "setting": "[9]; oral, at the higher dosages", "value": 100, "unit": "%"},
      {"measurement": "dose achieving maximum effect (maximum amplitude aggregation)", "setting": "[9]; oral, four hour time point", "value": "about 200 mg"},
      {"measurement": "maximum inhibition of ADP-induced platelet aggregation measured at six minutes", "setting": "[10]", "value": 100, "unit": "%"},
      {"measurement": "IC50", "setting": "[11]", "value": "~0.451", "unit": "µg/mL"},
      {"measurement": "IC50", "setting": "[12]", "value": 0.601, "unit": "µg/mL"},
      {"measurement": "serious adverse events", "setting": "[13]", "value": "no serious adverse events"},
      {"measurement": "tolerability", "setting": "[13]", "value": "well tolerated"}
    ]},
    {"compound": "CNc1cc2[nH]c(=O)n(-c3ccc(NC(=O)[N-]S(=O)(=O)c4ccc(Cl)s4)cc3)c(=O)c2cc1F.[Na+]", "note": "[amorphous form of the sodium salt]", "values": [
      {"measurement": "change in chemical purity in accelerated stability test", "setting": "[2]", "value": "No change"}
    ]},
    {"compound": "ortho-acetylsalicylic acid [aspirin]", "values": [
      {"measurement": "reduction in collagen induced platelet aggregation assay", "setting": "[14]", "value": "~40", "unit": "%"}
    ]}
  ]
}
